Reference: PMC12130509, “Development of a small compound that regulates the function of a maltodextrin-binding protein of Streptococcus pyogenes by multifaceted screenings” (Scientific Reports, 2025)

How the values were obtained:
[1] = target: T1, SPs0871 (Streptococcus pyogenes, UniProt A0A0H2UUQ6); assay: MST binding analysis; conditions: for concentration-dependent response by MST: 15.3 nM to 500 µM compound; for concentration-dependent response by MST / Kd: 100 nM SPs0871; for Kd: read-out: KD values calculated by MST analysis
Description: (§1) MST was performed on a Monolith NT.115 instrument using Monolith NT.115 Series, Premium Capillaries, and His-tagged SPs0871 was labeled using the Monolith His-Tag Labeling Kit RED-Tris-NTA 2nd Generation (NanoTemper Technologies GmbH, Munich, Germany). The final concentration of SPs0871 was 100 nM, and the final concentration of the dye was 5 nM. The buffer was PBS-T (PBS, 0.005% Tween 20), 5% DMSO. A range of concentrations of compounds (15.3 nM to 500 µM) was tested.

[2] = target: T1, SPs0871; assay: SPR analysis of binding to immobilized SPs0871 (Biacore T200); conditions: for concentration-dependent response by SPR (derivatives, cross-validation): 3.125–200 µM
Description: The binding of maltotriose and compound derivatives to SPs0871 was assessed using a Biacore T200 instrument (Cytiva, Marlborough, MA, USA). SPs0871 was immobilized at 4300–4700 RU on the surface of a CM5 sensor chip (Cytiva) by the amine-coupling method according to the manufacturer’s instructions. The running buffer was phosphate buffered saline with Tween (PBS, 0.005% Tween 20), 5% DMSO. To measure the interaction of maltotriose with SPs0871, a range of concentrations of maltotriose (0.039–20 µM) were injected at a flow rate of 30 μL min^–1 with a 20 s association time and a 40 s dissociation time. To measure the interaction of compound derivatives with SPs0871, a range of concentrations of compound derivatives (3.125–200 µM) were injected at a flow rate of 30 μL min^–1 with a 20 s association time and a 40 s dissociation time. Data analysis was carried out using BIAevaluation software (Cytiva, version ver3.2.1, https://www.cytivalifesciences.com/ja/jp/support/software/biacore-downloads?_gl=1*18vz87l*_gcl_au*MjA3MjI1ODE4Ni4xNzQyOTU1NzY3*_ga*OTQ5NDM5MTMyLjE3NDI5NTU3Njg.*_ga_CS9H0CZBWW*MTc0NDQ0NjkwMy41LjEuMTc0NDQ0ODAwNC4wLjAuMA.). The KDs of the interactions were calculated from Scatchard plots.

[3] = target: T1, SPs0871; assay: DSF, melting temperature of SPs0871; assay type: binding
Text: In the subsequent DSF screening, we measured the Tm value of SPs0871 in the presence of each compound. We also evaluated the structural stabilizing effect of each compound by binding it to SPs0871, which reflected the binding of the compound in the ligand binding pocket and the intramolecular interaction network. We included SPs0871 without small compounds as a negative control in each screening plate. The difference between the Tm value for each compound and the highest negative control Tm value in the same plate was used as the activity value for each compound.
DSF was performed on a CFX Connect Real-Time System (Bio-Rad, Hercules, CA, USA). The buffer was 1 × PBS, 5% DMSO except an experiment to assess the change of Tm value in a sugar concentration-dependent manner (Figure S1), in which DMSO was not added into the buffer. In the initial screening, the final concentration of the compounds was 100 µM and the concentration of SPs0871 was a 2 μM. One thousandth of the sample volume of SYPRO Orange Protein Gel Stain (5000 × concentrated in DMSO; Invitrogen, Waltham, MA, USA) was added, and samples containing 5 × SYPRO Orange were loaded onto 96-well PCR Plates (Bio-Rad) for measurement. The denaturation of protein was observed via fluorescence emitted from SYPRO Orange upon absorption to the exposed hydrophobic surface.

[4] = system: S. pyogenes strain JRS4; assay: Growth assay in CDM supplemented with maltotetraose, JRS4; assay type: cell-based, Streptococcus pyogenes; conditions: for GAS growth: 0.5% maltotetraose, 1% DMSO, OD600
Description: (§2) Bacteria were incubated in a carbohydrate-free chemically defined medium (CDM) supplemented with maltotetraose, which is thought to be taken up only via the SPs0871 pathway. […] Further, we also evaluated the antibacterial effect of 95,186 against SSI-1 strain, which is isolated from a STSS patient.
(§3) JRS4 and SSI-1 were used as GAS strains. The medium used as well as the procedure up to the assay were the same as previously described. […] For SSI-1, an additional 0.1% glucose was added to the CDM medium containing maltotetraose. To confirm the bacteriostatic effect of compound 95,186, the bacterial culture incubated in CDM was inoculated into THY medium to achieve a final OD600 value of 0.01.

[5] = target: T1, SPs0871; assay: SPR screening of direct binding to SPs0871 (Biacore 8K)
Text: In parallel, we conducted SPR screening to evaluate the direct binding of compounds to SPs0871. We immobilized SPs0871 on a sensor chip, flowed each compound to the chip in sequence, and evaluated the response for each compound. The response derived from maltotriose binding was designated as the positive control, with a relative value 100, and the response derived from the injection of running buffer was designated as the negative control, with a relative value 0. The molecular weight corrected value for each compound was used as the activity value.
Direct binding of compounds to SPs0871 was examined using a Biacore 8 K instrument (Cytiva). SPs0871 was immobilized at 3500–5300 RU on the surface of a CM5 sensor chip (Cytiva) by the amine-coupling method according to the manufacturer’s instructions. The running buffer was PBS-T (PBS, 0.005% Tween 20), 5% DMSO. In the screening, the final concentration of each compound was 100 µM, and samples were injected at a flow rate of 30 μL min^–1 with a 30 s association time. To check the concentration dependency, a range of concentrations of the compounds (3.125–50 µM) were injected at a flow rate of 30 μL min^–1 with a 20 s association time and a 30 s dissociation time. […]

[6] = system: SPs0871 mutants (E146, K294, W256 mutated to alanine); assay: MST binding to recombinant SPs0871 alanine mutants; set-up: species or system Streptococcus pyogenes
Text: To assess whether 95,186 competes with the natural ligand maltotriose in binding to SPs0871, we conducted MST analysis in the presence or absence of maltotriose. […] When we performed additional docking calculations using the Glide docking program (Schrodinger, New York, NY, USA) to identify hotspot residues for the compound binding, E146 and K294 were predicted to form hydrogen bonds and W256 was predicted to form van der Waals interactions during compound binding (Fig. 4B,C). We validated these predictions using recombinant SPs0871 mutants in which these residues were mutated to alanine.
(§4) The SPs0871 (including mutants) gene fragment encoding amino acids 27–415 was cloned into Escherichia coli expression vector pCold I (for MST) or pCold SUMO, in which the His6-SUMO-tag was introduced into the pCold I vector (Takara, Shiga, Japan). The same process was performed for MalE1 derived from the L. casei gene fragment encoding amino acids 28–410. The recombinant protein was expressed and purified as previously described.
as §1, with “The buffer was PBS-T (PBS, 0.005% Tween 20), 5% DMSO. A range of concentrations of compounds (15.3 nM to 500 µM) was tested.” left out

[7] = system: SSI-1 strain; assay: Growth assay in CDM medium, SSI-1; assay type: cell-based, Streptococcus pyogenes; conditions: 100 µM compound, 0.5% maltotetraose plus 0.1% glucose
Description: as §2, §3

[8] = system: MalE1; assay: MST analysis of bacterial species specificity; assay type: binding, L. casei
Text: Finally, to gain an insight into the specificity of the three compounds for bacterial species, we prepared MalE1 from L. casei as a recombinant protein and used MST to assess the binding of compounds 95,186, 95186b, and 95186c to MalE1.
as §4, §1

T1 sequence (A0A0H2UUQ6 entry or part of it): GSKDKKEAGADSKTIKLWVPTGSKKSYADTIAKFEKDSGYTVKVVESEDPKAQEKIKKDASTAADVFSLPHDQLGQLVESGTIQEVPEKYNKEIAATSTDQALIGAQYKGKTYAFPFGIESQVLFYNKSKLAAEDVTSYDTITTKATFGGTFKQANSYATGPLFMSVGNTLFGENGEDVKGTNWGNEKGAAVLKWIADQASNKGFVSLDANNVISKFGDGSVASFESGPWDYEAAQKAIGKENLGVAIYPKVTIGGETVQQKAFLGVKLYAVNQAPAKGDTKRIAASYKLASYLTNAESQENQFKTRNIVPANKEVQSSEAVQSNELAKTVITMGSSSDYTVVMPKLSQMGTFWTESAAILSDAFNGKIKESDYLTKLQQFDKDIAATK

Compound | concentration-dependent response by MST [1] | Kd [1] | GAS growth ([4]; 100 µM compound) | concentration-dependent response changes by MST with MalE1 [8] | also measured
Cc1nn2c(-c3cccc(NC(=O)c4ccccc4)c3)nnc2c2ccccc12 [95186e] | no change | – | – | – | –
maltotriose [reference compound] | – | 6.2 µM | – | – | Kd ([2]; maltotriose 0.039–20 µM, calculated from Scatchard plots, read-out: dissociation constant (KD) by SPR): 0.61 µM; increase of the melting temperature of SPs0871 ([3]; DSF, 10 µM maltotriose): 1.2 °C
O=C(CN1CCCCC1)Nc1cccc(C(=O)Nc2cccc(C(F)(F)F)c2)c1 [95186h] | no change | – | – | – | –
Cc1nn2c(-c3cccc(NC(=O)CN4CCCCC4)c3)nnc2c2ccccc12 [compound 95186] | showed a concentration-dependent response | 44.7 µM | suppressed GAS growth | No concentration-dependent response changes were detected | growth inhibition potential compared among compounds ([4]; 100 µM compound): highest growth inhibition potential; concentration dependence of growth suppression ([4]; JRS4, maltotetraose medium): concentration dependent above the KD value concentration; bactericidal or bacteriostatic effect ([4]; JRS4 exposed to compound transferred into THY medium, final OD600 0.01): bacteriostatic action; MST response in the presence of maltotriose (competition) ([1]; 60 µM maltotriose): concentration-dependent response disappeared; SPR activity value (molecular weight corrected relative response) ([5]; 100 µM compound, maltotriose response = 100, running buffer = 0, hit criterion ≥ 60): 162; concentration dependence of the binding by SPR ([5]; 3.125–50 µM, three independent experiments): concentration-dependent increase in response was reproducibly observed; MST response change upon binding to SPs0871 alanine mutants [6]: Only the W256A mutation attenuated the response change upon the binding; maltodextrin dependent growth of SSI-1 [7]: suppressed the maltodexitrin dependent growth of SSI-1; ΔTm at 100 µM ([3]; 100 µM compound, 2 µM SPs0871, hit criterion > 0.4 °C, read-out: DSF activity value (Tm with compound minus highest negative control Tm in the same plate)): 0.6 °C
CCC(=O)Nc1cccc(-c2nnc3c4ccccc4c(C)nn23)c1 [95186c] | concentration-dependent response change | 71.7 µM | suppressed GAS growth | No concentration-dependent response changes were detected | concentration-dependent response by SPR (derivatives, cross-validation) [2]: observed concentration-dependent responses
Cc1nn2c(-c3cccc(NC(=O)COc4ccccc4)c3)nnc2c2ccccc12 [95186f] | no change | – | – | – | –
Cc1nn2c(-c3cccc(NC(=O)CN4CCOCC4)c3)nnc2c2ccccc12 [95186b] | concentration-dependent response change | 67.1 µM | suppressed GAS growth | No concentration-dependent response changes were detected | concentration-dependent response by SPR (derivatives, cross-validation) [2]: observed concentration-dependent responses
Cc1nn2c(-c3cccc(NC(=O)CSc4nc5ccccc5o4)c3)nnc2c2ccccc12 [95186g] | no change | – | – | – | –
Cc1nn2c(-c3cccc(NC(=O)c4ccco4)c3)nnc2c2ccccc12 [95186d] | concentration-dependent response change | – | – | – | initial optical density at 600 nm (OD600) values ([4]; 100 µM in CDM with maltotetraose): high because of aggregation of the compounds in the medium as well as bacterial growth
Cc1ccc(-c2nnc3c4ccccc4c(C)nn23)cc1NC(=O)CN1CCCCC1 [95186a] | no change | – | – | – | –
